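1) Cells in 96-well plates. 2) Compound, 48 h, 5 concentrations. 3) Linear interpolation between surrounding doses. 4) Unreached endpoint = highest concentration. GI50 is the concentration that inhibits growth by half.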 Active and inactive are the calls of the source. Rule as the data show it: active = GI50 up to about 1.1 µM and inactive = higher.
Tests used:
Experiment in all cases: NCI tumour cell line growth inhibition, 48 h
IGROV-1 = system: IGROV-1
KM12 = system: KM12
OVCAR-4 = system: OVCAR-4
HCC 2998 = system: HCC 2998
A498 = system: A498
SF-268 = system: SF-268
SF-295 = system: SF-295
OVCAR-3 = system: OVCAR-3
SNB-75 = system: SNB-75
SF-539 = system: SF-539
SN12C = system: SN12C
CAKI-1 = system: CAKI-1
786-0 = system: 786-0
UO-31 = system: UO-31
A549 = system: A549
NCI-H23 = system: NCI-H23
NCI-H522 = system: NCI-H522
MOLT-4 = system: MOLT-4
CCRF-CEM = system: CCRF-CEM
BT-549 = system: BT-549

Measured: GI50

CCOc1ccccc1NC(=O)C1=C(C)NC(C)=C(C(=O)Nc2ccccc2OCC)C1c1ccc([N+](=O)[O-])cc1
inactive: IGROV-1 45.2 µM | KM12 41 µM | OVCAR-4 68.9 µM | HCC 2998 > 100 µM | A498 78.9 µM | SF-268 > 100 µM | SF-295 21.3 µM | OVCAR-3 > 100 µM | SNB-75 53.1 µM | SF-539 > 100 µM | SN12C > 100 µM | CAKI-1 > 100 µM | 786-0 > 100 µM | UO-31 32.7 µM | A549 > 100 µM | NCI-H23 44 µM | NCI-H522 > 100 µM

COc1c(OC(C)=O)ccc(/C=C2\N=C(C)OC2=O)c1[N+](=O)[O-]
inactive: IGROV-1 > 100 µM | KM12 > 100 µM | MOLT-4 > 100 µM | OVCAR-4 > 100 µM | HCC 2998 > 100 µM | A498 > 100 µM | SF-268 > 100 µM | SF-295 > 100 µM | SNB-75 91.6 µM | SF-539 > 100 µM | SN12C > 100 µM | CAKI-1 > 100 µM | CCRF-CEM > 100 µM | 786-0 > 100 µM | UO-31 > 100 µM | A549 > 100 µM | NCI-H522 > 100 µM

CC(=O)C1=CCC2c3[nH]c4ccccc4c3CCN2C1 (centres undefined)
inactive: IGROV-1 61.1 µM | KM12 52.6 µM | MOLT-4 42.1 µM | OVCAR-4 35.6 µM | HCC 2998 55 µM | A498 > 100 µM | SF-268 69.2 µM | SF-295 98.6 µM | OVCAR-3 31.7 µM | SNB-75 15.1 µM | SF-539 26.6 µM | SN12C 68.4 µM | CCRF-CEM 38.5 µM | 786-0 35.1 µM | UO-31 > 100 µM | A549 > 100 µM | NCI-H23 46.7 µM | NCI-H522 24.7 µM

COc1ccc2[nH]c(=O)cc(C)c2c1[N+](=O)[O-]
inactive: IGROV-1 > 100 µM | KM12 > 100 µM | MOLT-4 > 100 µM | OVCAR-4 > 100 µM | HCC 2998 > 100 µM | A498 54.8 µM | SF-268 82 µM | SF-295 > 100 µM | OVCAR-3 > 100 µM | SNB-75 10.5 µM | SF-539 > 100 µM | SN12C > 100 µM | CAKI-1 31.7 µM | CCRF-CEM > 100 µM | 786-0 > 100 µM | UO-31 18.3 µM | A549 > 100 µM | NCI-H23 > 100 µM | NCI-H522 47.4 µM

Cc1ccc(NC(=O)C(=O)CC(=O)c2c(C)[n+]([O-])c3ccccc3[n+]2[O-])cc1C
inactive: IGROV-1 > 100 µM | KM12 > 100 µM | OVCAR-4 > 100 µM | HCC 2998 > 100 µM | A498 > 100 µM | SF-268 > 100 µM | SF-295 > 100 µM | OVCAR-3 48.4 µM | SNB-75 > 100 µM | SF-539 > 100 µM | SN12C > 100 µM | CAKI-1 > 100 µM | CCRF-CEM 63.1 µM | 786-0 > 100 µM | UO-31 > 100 µM | A549 > 100 µM | NCI-H23 > 100 µM | NCI-H522 66.2 µM

Nc1nc(Cl)cc(NCC2(CO)CC(=O)C2)n1
inactive: IGROV-1 > 100 µM | KM12 > 100 µM | MOLT-4 > 100 µM | OVCAR-4 > 100 µM | HCC 2998 > 100 µM | SF-268 > 100 µM | BT-549 > 100 µM | SF-295 > 100 µM | OVCAR-3 > 100 µM | SF-539 > 100 µM | SN12C > 100 µM | CAKI-1 > 100 µM | CCRF-CEM > 100 µM | 786-0 > 100 µM | UO-31 > 100 µM | A549 > 100 µM | NCI-H23 > 100 µM | NCI-H522 > 100 µM

C[C@H](OCc1ccccc1)C(=O)N1CCS(=O)(=O)N2CCC[C@@H]2C1=O
inactive: IGROV-1 > 100 µM | KM12 > 100 µM | MOLT-4 > 100 µM | OVCAR-4 > 100 µM | HCC 2998 > 100 µM | A498 > 100 µM | SF-268 > 100 µM | SF-295 > 100 µM | OVCAR-3 > 100 µM | SNB-75 > 100 µM | SF-539 > 100 µM | SN12C > 100 µM | CAKI-1 > 100 µM | CCRF-CEM > 100 µM | 786-0 > 100 µM | UO-31 > 100 µM | A549 > 100 µM | NCI-H23 > 100 µM | NCI-H522 > 100 µM

CCOC(=O)/C(=C/NC(=S)Nc1c(CC)cccc1C(C)(C)C)C(=O)c1ccccc1
inactive: IGROV-1 > 100 µM | KM12 > 100 µM | MOLT-4 > 100 µM | OVCAR-4 > 100 µM | HCC 2998 > 100 µM | A498 > 100 µM | SF-268 > 100 µM | SF-295 > 100 µM | SNB-75 29.3 µM | SF-539 > 100 µM | SN12C > 100 µM | CAKI-1 > 100 µM | CCRF-CEM > 100 µM | 786-0 > 100 µM | UO-31 14.7 µM | A549 > 100 µM | NCI-H23 > 100 µM | NCI-H522 > 100 µM
